# From patent US20260137081A1, “SUBSTITUTED FURANONES AND USE THEREOF FOR AGRICULTURAL APPLICATIONS” (SOUND AGRICULTURE COMPANY, priority 2021, published 2026)
# Columns and labels:
# Format in all cases: in vivo
# corn plants [1] = experiment: Greenhouse foliar application, gas exchange with LI-COR 6800 (carbon assimilation, transpiration, stomatal conductance); conditions: 0.8 fl. oz rate; 2 and 24 hour time points; compared to the mock
# Protocol: Greenhouse application of Compound 1: Corn plants were grown in a greenhouse for 9 weeks (V5) prior to treatment. Eight plants were treated with a mock solution (formulation blank), low rate (0.8 fl. oz) or medium rate (1.7 fl. oz). The low rate and medium rate refer to the volume of the Compound 1 containing solution that is applied to 1 acre of corn plants, and roughly equates to 5 grams of Compound 1 per acre for low rate and about 10 grams of Compound 1 per acre for medium rate. The foliar blends were prepared by mixing the formula concentrations into water followed by vigorous mixing. To mimic a foliar application in a corn field (using a spray boom), a uniform coating of the entire plant was carried out (FIG. 2) using a hand-held spray bottle. Following application, the plants were separated to avoid cross contamination (aerosol drift) and allowed to dry. Measurement of carbon assimilation: Assessment of the effects of Compound 1 on photosynthesis in corn plants, tobacco plants, and soybean plants was performed using a LI-COR 6800 fluorimeter, which measured net carbon assimilation (Anet), transpiration (E) and stomatal conductance (gsw). The youngest fully expanded leaf with a fully formed ligule was used from each plant for sampling. A single sample (biological representative) consisted of averaging the readings from three technical representatives adjacent to each other on each sampled leaf. Each treatment consisted of eight biological representatives (N=8). Photobiology measurements were taken at 2 and 24 hour time points, post application.
# corn plants [2] = experiment: Chlorophyll fluorescence with LI-COR 6800 after foliar application; conditions: for minimal fluorescence Fo / maximum fluorescence (Fm): dark-adapted; for light-adapted quantum efficiency of PSII (Fv′/Fm′): in comparison to the mock
# Protocol: Greenhouse application of Compound 1: Corn plants were grown in a greenhouse for 9 weeks (V5) prior to treatment. […] The foliar blends were prepared by mixing the formula concentrations into water followed by vigorous mixing. To mimic a foliar application in a corn field (using a spray boom), a uniform coating of the entire plant was carried out (FIG. 2) using a hand-held spray bottle. Following application, the plants were separated to avoid cross contamination (aerosol drift) and allowed to dry. Measurement of chlorophyll fluorescence: Chlorophyll fluorescence measurements were determined 4 hrs and 24 hrs after treatment using a LI-COR 6800 fluorimeter (LI-COR Biosciences; Lincoln, Nebraska). Corn plants were dark-adapted 60-90 min prior to measurement and the youngest fully expanded leaf with a fully formed ligule was used for the measurement. Minimal fluorescence levels in the dark (Fo) and light (Fo′) were recorded by applying a measuring light of 12 μmol photons m^−2 s^−1. Maximum fluorescence levels in the dark (Fm) and light (Fm′) were recorded by applying a saturating pulse of light at 10,000 μmol photons m^−2 s^−1. Maximum quantum efficiency of PSII in the dark (Fv/Fm) and light (Fv′/Fm′) were calculated as (Fm−Fo/Fm) using their respective dark or light-adapted values. NPQ induction was measured after a 5 minute exposure to an actinic light source at 1,000 μmol photons m^−2 s^−1 and calculated as (Fm−Fm′/Fm′).
# [3] = system: Corn (Syngenta Agrisure Artesian); experiment: Cool Grow Procedure Two (foliar spray of DC formulation vs formulation blank)
# Protocol: Corn (Syngenta Agrisure Artesian, Basel, Switzerland) seeds (n=2) were planted in 24 four inch pots containing Sunshine soil #1 (Sun Gro, Agawam, MA) mixed with ⅛ tbsp of 14-14-14 osmocote N—P—K (Bloomington Brands LLC, Bloomington, IN) slow-release fertilizer and Micromax (ICL Specialty Fertilizers) (lg/L). Pots were placed on plant holder trays (11×22 in) with three pots per tray and were set-up in a 4×4 ft Cool Grow tent (capacity: 35 one liter pots) with temperature set at 24° C. and light at 345 μmoL for 12 hours day and night. Upon emergence, one seedling was culled leaving only one plant per pot. Plants were fertilized weekly thereafter starting one week after germination with 20-20-20 NPK (1 tsp/gallon) (Bloomington Brands LLC, Bloomington, IN) applied at ˜800-1000 mL per tray.
# At V2-3 stage (14 days after seeding), each plant was sprayed with 7.5 mL of the following formulations: formulation blank DC (12 plants total; Agnique® AMD 3L (N,N-dimethyl lactamide)); Compound 1 DC formulation (9.86 μL of DC formulation from Example 5 dissolved in 50 mL of water). After 90 minutes following spray treatment, photosynthetic measurements were made using Licor. Digital biomass and NDVI measurements were made 21 days after seeding by a PlantEye F600Multispectral 3D scanner (Phenospex, Netherlands) and plants were harvested at 27 days after seeding.
# corn = experiment: Corn field trials, grain yield; conditions: field trials in Illinois and Iowa; applied once in late June; vs untreated control
# Protocol: The total amount of Compound 1 applied to each plot ranged from about 5 g/acre to about 20 g/acre.
# Corn field trials were performed in Illinois and Iowa. In each trial, individual plots measured 10 feet by 30 feet and each treatment (application of Compound 1 or untreated control) was replicated across 4 plots in a randomized complete block design. Agronomic practices were maintained under standard commercial conditions and products used for weed, insect, and disease control. The Walnut, Illinois trial site was planted in mid-May and harvested in early October. The Richland, Iowa site was planted in late April and harvested in late September. Compound 1 was applied to both sites once in late June. Grain weight and grain moisture were measured for each plot at harvest, data is reported as bushels per acre normalized to 13% moisture content.
compound,measurement,setting,value
"COC1=C(OC)[C@@H]([C@@H]2COC(C)(C)O2)OC1=O [Compound 1, (5R)-5-(2,2-dimethyl-1,3-dioxolan-4-yl)-3,4-dimethoxyfuran-2(5H)-one]",CO2 assimilation (Anet),corn plants [1],elevated
same,stomatal conductance (gsw),corn plants [1],elevated
same,transpiration (E),corn plants [1],elevated
same,light-adapted Fm′,corn plants [2]; 24 hrs post application,not higher
same,dark-adapted quantum efficiency of PSII (Fv/Fm),"corn plants [2]; both rates, after 24 hrs",higher
same,minimal fluorescence Fo,"corn plants [2]; high rate, 4 hrs post foliar application, vs low rate and mock control",lower
same,maximum fluorescence (Fm),"corn plants [2]; high rate, both timepoints (4 and 24 hrs)",higher
same,minimal fluorescence Fo,"corn plants [2]; low and high rates, after 24 hrs, vs mock control",lower compared to the mock control
same,maximum fluorescence (Fm),"corn plants [2]; low rate, after 24 hrs",higher
same,light-adapted quantum efficiency of PSII (Fv′/Fm′),"corn plants [2]; high rate, 4 hrs post application",higher
same,dark-adapted quantum efficiency of PSII (Fv/Fm),"corn plants [2]; high rate, after 4 hrs",higher
same,light-adapted quantum efficiency of PSII (Fv′/Fm′),"corn plants [2]; low rate, 24 hrs post application",higher
same,light-adapted Fm′,"corn plants [2]; the two rates, 4 hrs post application",similarly higher
same,NDVI,"[3]; 21 days after seeding, formulation blank DC 0.558, p<0.05",0.569
same,mean shoot dry weight,"[3]; harvest 27 days after seeding, formulation blank DC 3.16, p<0.1",3.62 g
same,Corn yield,corn,Increases
